# Where a name gives a salt, the structure may show the parent alone.
# Assays:
# OAT1 = target: T1, OAT1 (Homo sapiens, UniProt Q4U2R8); test: Uptake transporter inhibition assay, OAT1; assay type: cell-based; settings: HEK293 cells overexpressing transporter
# T1 construct: host or cells: HEK293
# T1 sequence (Q4U2R8 1-563): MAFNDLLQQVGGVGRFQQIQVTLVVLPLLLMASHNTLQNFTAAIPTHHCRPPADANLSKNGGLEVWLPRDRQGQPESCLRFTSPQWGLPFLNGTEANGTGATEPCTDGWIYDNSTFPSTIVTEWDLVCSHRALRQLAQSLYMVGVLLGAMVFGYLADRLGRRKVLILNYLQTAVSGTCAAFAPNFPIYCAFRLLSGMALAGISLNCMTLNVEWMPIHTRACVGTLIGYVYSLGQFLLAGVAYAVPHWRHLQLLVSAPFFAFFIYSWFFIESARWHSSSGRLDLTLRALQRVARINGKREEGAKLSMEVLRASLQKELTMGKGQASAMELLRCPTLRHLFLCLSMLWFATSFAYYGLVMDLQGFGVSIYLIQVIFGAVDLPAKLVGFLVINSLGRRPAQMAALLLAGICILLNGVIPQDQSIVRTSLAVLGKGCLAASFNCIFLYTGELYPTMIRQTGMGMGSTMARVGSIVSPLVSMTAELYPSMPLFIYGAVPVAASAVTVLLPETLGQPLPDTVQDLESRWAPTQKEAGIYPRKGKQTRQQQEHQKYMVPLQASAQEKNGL
# Method: (§1) Experiment B4: Bile Acid Transporters Inhibition in the Liver.
# (§2) The compound was tested on a panel of 10 transporters: BSEP, MRP2, MRP3, MRP4 in a vesicular transport inhibition assay and NTCP, OAT1, OAT2v1, OATP1A2, OATP1B1, OATP1B3 in an uptake transporter inhibition assays.
# (§3) Transporter uptake inhibition test was performed on mammal HEK293 cells overexpressing of a respective transporter. Cells were cultured at 37±1° C. and seeded on 96-well tissue culture plate at 1×10^5/well. Substrate was removed prior to experiment and cells were washed twice with 100 μl of respective buffer (HK pH 7.4 for OATP1B1 and HBSS pH 7.4 for NTCP, OAT1, OAT2v1, OATP1A2, and OATP1B3). Uptake studies were performed at 37±1° C. in 50 μl of respective buffer containing radioactively tagged substrate and tested compound or solvent.
# (§4) After experiment cells were washed twice with 100 μl of ice-cold respective buffer and lysed with 50 μl of 0.1M NaOH. Transport of radioactively tagged substrate was determined by scintillation counter measurement.
# MRP3 = target: T2, MRP3 (Homo sapiens, UniProt O15438); test: Vesicular transport inhibition assay, MRP3; assay type: biochemical; settings: membrane vesicles from HEK293 cells
# T2 construct: host or cells: HEK293 (membrane vesicles)
# T2 sequence (O15438 whole entry): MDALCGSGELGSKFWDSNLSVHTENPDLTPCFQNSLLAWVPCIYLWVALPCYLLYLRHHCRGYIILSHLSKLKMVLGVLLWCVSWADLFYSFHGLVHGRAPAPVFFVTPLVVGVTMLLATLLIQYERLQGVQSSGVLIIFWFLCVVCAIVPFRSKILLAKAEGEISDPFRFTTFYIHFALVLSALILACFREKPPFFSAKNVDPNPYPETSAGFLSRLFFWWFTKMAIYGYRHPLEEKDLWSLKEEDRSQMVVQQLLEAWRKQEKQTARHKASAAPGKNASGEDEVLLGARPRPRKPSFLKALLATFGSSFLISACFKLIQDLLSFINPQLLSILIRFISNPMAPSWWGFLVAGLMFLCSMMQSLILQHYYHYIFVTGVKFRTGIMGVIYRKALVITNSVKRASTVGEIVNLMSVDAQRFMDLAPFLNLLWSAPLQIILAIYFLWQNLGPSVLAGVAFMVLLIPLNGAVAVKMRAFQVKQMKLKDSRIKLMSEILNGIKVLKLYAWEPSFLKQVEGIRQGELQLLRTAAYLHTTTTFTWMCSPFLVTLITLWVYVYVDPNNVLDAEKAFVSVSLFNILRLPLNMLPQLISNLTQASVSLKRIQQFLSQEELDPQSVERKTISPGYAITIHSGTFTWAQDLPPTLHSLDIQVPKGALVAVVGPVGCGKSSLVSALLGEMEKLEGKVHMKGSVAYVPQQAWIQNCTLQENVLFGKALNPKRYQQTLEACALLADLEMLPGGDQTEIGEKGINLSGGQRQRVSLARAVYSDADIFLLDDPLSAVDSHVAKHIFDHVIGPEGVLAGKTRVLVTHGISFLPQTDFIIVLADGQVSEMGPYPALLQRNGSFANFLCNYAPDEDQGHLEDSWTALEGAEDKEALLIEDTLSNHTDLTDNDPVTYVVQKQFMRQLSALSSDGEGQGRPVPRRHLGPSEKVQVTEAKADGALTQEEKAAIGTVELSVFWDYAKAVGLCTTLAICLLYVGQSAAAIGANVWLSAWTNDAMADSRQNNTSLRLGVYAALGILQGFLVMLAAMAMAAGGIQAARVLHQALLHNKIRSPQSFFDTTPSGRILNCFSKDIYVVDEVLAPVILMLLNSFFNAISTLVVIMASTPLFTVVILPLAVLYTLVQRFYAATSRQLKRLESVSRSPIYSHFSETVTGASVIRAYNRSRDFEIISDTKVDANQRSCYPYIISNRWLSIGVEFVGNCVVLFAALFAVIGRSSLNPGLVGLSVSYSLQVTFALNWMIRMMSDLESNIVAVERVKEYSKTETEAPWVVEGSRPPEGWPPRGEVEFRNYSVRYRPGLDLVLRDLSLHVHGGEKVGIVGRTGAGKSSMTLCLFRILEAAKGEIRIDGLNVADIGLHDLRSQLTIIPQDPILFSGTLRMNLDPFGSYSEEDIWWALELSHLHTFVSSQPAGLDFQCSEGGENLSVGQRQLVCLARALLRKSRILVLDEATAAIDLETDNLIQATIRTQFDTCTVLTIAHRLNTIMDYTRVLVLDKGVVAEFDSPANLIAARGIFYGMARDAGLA
# Method: (§5) Experiment B4: Bile Acid Transporters Inhibition in the Liver. […] The compound was tested on a panel of 10 transporters: BSEP, MRP2, MRP3, MRP4 in a vesicular transport inhibition assay and NTCP, OAT1, OAT2v1, OATP1A2, OATP1B1, OATP1B3 in an uptake transporter inhibition assays. Vesicular transport inhibition assay was performed on membrane vesicles isolated from mammal HEK293 cells overexpressing human ABC transporters. Tested compound were incubated with vesicles and substrates for respective tested transporters. Incubation was performed in the presence of 4 mM ATP or AMP in order to differentiate between uptake by a transporter and passive diffusion into vesicles. In the case of MRP2 and MRP3, reactions were performed in the presence of 2 mM glutathione. Tested compounds were added to the reaction mixture dissolved in 0.75 μl of a solvent (1% of final incubation volume). Reaction mixtures were preincubated for 15 minutes at 37±1° C. Reactions were started by the addition of 25 μl of 12 mM MgATP (or 12 mM AMP) in test buffer, as a background control, separately preincubated.
# OATP1B1 = target: T3, OATP1B1 (Homo sapiens, UniProt Q9Y6L6); test: Uptake transporter inhibition assay, OATP1B1; assay type: cell-based; settings: HEK293 cells overexpressing transporter
# T3 construct: host or cells: HEK293
# T3 sequence (Q9Y6L6 1-691): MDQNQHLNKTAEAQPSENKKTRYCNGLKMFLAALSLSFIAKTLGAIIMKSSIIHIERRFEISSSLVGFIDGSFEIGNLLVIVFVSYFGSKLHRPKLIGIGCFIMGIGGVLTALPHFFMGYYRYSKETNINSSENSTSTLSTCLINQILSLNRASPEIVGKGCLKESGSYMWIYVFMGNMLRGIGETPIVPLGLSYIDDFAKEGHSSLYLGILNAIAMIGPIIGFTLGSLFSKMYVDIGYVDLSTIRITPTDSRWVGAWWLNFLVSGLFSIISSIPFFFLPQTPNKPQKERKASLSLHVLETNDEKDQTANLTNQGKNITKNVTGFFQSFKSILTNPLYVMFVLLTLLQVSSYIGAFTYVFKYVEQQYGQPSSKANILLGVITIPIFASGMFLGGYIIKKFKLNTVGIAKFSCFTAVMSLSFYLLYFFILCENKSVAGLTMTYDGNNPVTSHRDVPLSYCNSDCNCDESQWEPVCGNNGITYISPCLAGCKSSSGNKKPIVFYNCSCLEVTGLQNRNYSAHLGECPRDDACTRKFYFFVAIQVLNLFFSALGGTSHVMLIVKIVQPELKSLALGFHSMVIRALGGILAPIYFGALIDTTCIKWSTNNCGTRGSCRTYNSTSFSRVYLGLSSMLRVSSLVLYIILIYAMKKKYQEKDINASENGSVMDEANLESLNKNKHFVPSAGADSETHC
# Method: as §1, §2, §3, §4
# BSEP = target: T4, BSEP (Homo sapiens, UniProt O95342); test: Vesicular transport inhibition assay, BSEP; assay type: biochemical; settings: membrane vesicles from HEK293 cells
# T4 construct: host or cells: HEK293 (membrane vesicles)
# T4 sequence (O95342 whole entry): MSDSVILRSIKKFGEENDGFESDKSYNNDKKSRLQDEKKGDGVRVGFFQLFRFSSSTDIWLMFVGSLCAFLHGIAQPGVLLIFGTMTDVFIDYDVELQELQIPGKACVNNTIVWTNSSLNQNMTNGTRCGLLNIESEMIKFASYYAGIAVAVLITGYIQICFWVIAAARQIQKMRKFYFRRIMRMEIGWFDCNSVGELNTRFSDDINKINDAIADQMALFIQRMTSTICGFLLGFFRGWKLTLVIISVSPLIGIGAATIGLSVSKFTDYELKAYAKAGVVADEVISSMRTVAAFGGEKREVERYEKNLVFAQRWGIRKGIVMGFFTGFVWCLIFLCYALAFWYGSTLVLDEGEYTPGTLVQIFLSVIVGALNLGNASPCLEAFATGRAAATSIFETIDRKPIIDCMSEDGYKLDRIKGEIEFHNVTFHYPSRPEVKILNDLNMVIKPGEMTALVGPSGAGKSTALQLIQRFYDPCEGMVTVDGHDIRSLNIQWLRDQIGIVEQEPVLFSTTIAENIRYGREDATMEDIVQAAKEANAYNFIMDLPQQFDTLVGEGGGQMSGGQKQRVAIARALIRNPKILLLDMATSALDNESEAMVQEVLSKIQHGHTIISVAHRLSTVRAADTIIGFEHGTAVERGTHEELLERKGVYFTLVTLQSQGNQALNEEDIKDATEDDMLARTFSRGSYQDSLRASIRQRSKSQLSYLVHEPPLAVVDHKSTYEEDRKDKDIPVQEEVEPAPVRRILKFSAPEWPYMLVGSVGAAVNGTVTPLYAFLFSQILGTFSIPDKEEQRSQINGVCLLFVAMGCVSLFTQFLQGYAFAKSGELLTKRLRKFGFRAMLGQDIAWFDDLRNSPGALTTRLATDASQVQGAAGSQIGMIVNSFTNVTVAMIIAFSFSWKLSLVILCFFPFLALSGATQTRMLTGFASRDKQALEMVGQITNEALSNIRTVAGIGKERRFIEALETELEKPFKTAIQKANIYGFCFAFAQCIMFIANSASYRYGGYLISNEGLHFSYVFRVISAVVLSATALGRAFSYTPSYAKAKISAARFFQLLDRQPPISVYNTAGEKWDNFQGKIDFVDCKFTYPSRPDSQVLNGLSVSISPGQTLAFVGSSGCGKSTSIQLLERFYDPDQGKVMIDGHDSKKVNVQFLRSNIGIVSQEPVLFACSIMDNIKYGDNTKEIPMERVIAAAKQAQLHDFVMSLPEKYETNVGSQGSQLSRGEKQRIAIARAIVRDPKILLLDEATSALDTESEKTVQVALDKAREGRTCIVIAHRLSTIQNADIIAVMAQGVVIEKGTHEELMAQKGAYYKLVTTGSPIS
# Method: as §5
# MRP2 = target: T5, MRP2 (Homo sapiens, UniProt Q92887); test: Vesicular transport inhibition assay, MRP2; assay type: biochemical; settings: membrane vesicles from HEK293 cells
# T5 construct: host or cells: HEK293 (membrane vesicles)
# T5 sequence (Q92887 whole entry): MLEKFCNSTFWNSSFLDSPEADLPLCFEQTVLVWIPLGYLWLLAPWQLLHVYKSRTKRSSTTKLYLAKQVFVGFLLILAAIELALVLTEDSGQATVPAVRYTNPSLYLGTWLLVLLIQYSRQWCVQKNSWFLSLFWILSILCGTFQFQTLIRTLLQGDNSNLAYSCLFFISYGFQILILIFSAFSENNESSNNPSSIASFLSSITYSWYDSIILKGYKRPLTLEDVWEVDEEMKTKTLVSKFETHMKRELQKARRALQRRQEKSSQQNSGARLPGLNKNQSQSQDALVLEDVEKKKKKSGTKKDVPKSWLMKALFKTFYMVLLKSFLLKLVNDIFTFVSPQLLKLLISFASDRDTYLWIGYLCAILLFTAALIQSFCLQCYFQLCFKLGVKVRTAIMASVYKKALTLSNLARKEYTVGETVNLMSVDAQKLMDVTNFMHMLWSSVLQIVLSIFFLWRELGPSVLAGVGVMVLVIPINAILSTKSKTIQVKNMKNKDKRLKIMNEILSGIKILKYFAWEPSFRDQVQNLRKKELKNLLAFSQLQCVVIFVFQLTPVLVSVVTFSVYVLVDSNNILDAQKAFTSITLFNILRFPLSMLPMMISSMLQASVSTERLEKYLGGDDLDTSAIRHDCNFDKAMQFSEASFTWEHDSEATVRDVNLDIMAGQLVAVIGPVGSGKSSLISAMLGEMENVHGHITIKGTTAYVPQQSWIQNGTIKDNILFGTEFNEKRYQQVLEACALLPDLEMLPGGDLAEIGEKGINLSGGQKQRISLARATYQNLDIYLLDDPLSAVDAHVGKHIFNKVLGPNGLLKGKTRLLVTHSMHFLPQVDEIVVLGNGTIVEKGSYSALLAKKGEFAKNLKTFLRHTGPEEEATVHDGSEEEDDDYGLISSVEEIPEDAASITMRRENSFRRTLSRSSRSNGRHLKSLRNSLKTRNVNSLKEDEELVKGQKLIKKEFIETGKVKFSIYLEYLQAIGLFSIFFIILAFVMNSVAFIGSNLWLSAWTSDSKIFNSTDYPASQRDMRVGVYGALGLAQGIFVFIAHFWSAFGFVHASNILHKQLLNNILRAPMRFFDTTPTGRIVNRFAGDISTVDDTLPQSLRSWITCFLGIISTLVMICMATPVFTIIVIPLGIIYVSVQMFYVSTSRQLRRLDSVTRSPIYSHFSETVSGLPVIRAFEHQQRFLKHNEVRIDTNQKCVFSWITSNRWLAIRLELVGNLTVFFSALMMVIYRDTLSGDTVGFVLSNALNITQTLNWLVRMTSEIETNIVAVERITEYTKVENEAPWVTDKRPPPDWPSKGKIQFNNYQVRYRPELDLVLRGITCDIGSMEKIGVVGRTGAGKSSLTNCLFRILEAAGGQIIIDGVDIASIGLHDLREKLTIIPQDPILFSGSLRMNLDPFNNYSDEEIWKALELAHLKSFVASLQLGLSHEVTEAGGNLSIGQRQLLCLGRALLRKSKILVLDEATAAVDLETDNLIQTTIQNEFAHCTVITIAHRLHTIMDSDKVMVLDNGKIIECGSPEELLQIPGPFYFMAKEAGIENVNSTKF
# Method: as §5
structure (smiles),measurement,setting,value
"Cc1cc(OCCCS(C)(=O)=O)cc(C)c1-c1cccc(COc2ccc3c(c2)OC[C@H]3CC(=O)O)c1 [Example R1, 2[(3S)-6-({3-[4-(3-methanesulfonylpropoxy)-2,6-dimethylphenyl]-phenyl}methoxy)-2,3-dihydro-1-benzofuran-3-yl]acetic acid, reference compound]",IC50,OAT1,34.8 µM
same,IC50,MRP3; 2 mM glutathione,31.8 µM
same,IC50,OATP1B1,0.49 µM
same,IC50,BSEP,30 µM
same,IC50,MRP2; 2 mM glutathione,48.1 µM
"CC#C[C@@H](CC(=O)O)c1ccc(OCC(C)=C(C)C)cc1 [Example S1, (3S)-3-{4-[(2,3-dimethylbut-2-en-1-yl)oxy]phenyl}hex-4-ynoic acid calcium salt]",IC50,OAT1,245 µM
same,IC50,MRP3; symbol per footnote,> 100 µM
same,IC50,OATP1B1,17.9 µM
same,IC50,BSEP,> 100 µM
same,IC50,MRP2; symbol per footnote,> 100 µM
